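Growth conditions: 96-well plates. Treatment: test compound, 48 hours, 5 concentrations. Analysis: linear interpolation between bracketing concentrations; unreached endpoints set to highest concentration. GI50: concentration for 50% inhibition of growth.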 Active and inactive are the calls of the source. Cut-off read from the data, not from the text of the source: active = GI50 up to about 1.1 µM and inactive = higher.
How the values were obtained:
Assay in all cases: NCI-60 cell line screen, 48 h
HCT-116 = system: HCT-116
SW-620 = system: SW-620
UACC-257 = system: UACC-257
HOP-92 = system: HOP-92
MCF7 = system: MCF7
SNB-75 = system: SNB-75
HCC 2998 = system: HCC 2998
EKVX = system: EKVX
HCT-15 = system: HCT-15
UO-31 = system: UO-31
CCRF-CEM = system: CCRF-CEM
NCI-H460 = system: NCI-H460
OVCAR-3 = system: OVCAR-3
SK-MEL-5 = system: SK-MEL-5
OVCAR-8 = system: OVCAR-8
RXF 393 = system: RXF 393
COLO 205 = system: COLO 205
HT-29 = system: HT-29
TK-10 = system: TK-10
ACHN = system: ACHN

Structure (SMILES)	GI50 (HCT-116)	GI50 (SW-620)	GI50 (UACC-257)	GI50 (HOP-92)	GI50 (MCF7)	GI50 (SNB-75)	GI50 (HCC 2998)	GI50 (EKVX)	GI50 (HCT-15) [µM]	GI50 (UO-31)	GI50 (CCRF-CEM)	GI50 (NCI-H460)	GI50 (OVCAR-3)	GI50 (SK-MEL-5)	GI50 (OVCAR-8)	GI50 (RXF 393)	GI50 (COLO 205)	GI50 (HT-29)	GI50 (TK-10)	GI50 (ACHN)
Nc1cccc2c1C1=NNC(=O)CC1C2 (centres undefined)	> 100 µM (inactive)	> 100 µM (inactive)	> 100 µM (inactive)	2.51 µM (inactive)	> 100 µM (inactive)	> 100 µM (inactive)	> 100 µM (inactive)	> 76.6 µM (inactive)	> 100	> 100 µM (inactive)	> 100 µM (inactive)	> 100 µM (inactive)	> 100 µM (inactive)	> 100 µM (inactive)	> 100 µM (inactive)	> 100 µM (inactive)	> 100 µM (inactive)			
CNC(=O)SCC(N)C(=O)O (centres undefined)	> 79.4 µM (inactive)	> 85.9 µM (inactive)	> 100 µM (inactive)	51.9 µM (inactive)	> 100 µM (inactive)	> 100 µM (inactive)	> 100 µM (inactive)	> 100 µM (inactive)	46	> 100 µM (inactive)	25.8 µM (inactive)	> 68.7 µM (inactive)	> 100 µM (inactive)	> 78.7 µM (inactive)	> 100 µM (inactive)	> 100 µM (inactive)	61.1 µM (inactive)	> 71.3 µM (inactive)		
COc1ccc(C2SCc3nc4ccccc4n32)cc1 (centres undefined)		3.44 µM (inactive)		1.85 µM (inactive)		1.82 µM (inactive)		19.5 µM (inactive)	3.16	10 µM (inactive)	3.49 µM (inactive)	3.86 µM (inactive)	6.28 µM (inactive)	3.84 µM (inactive)	6.07 µM (inactive)		2.73 µM (inactive)	2.4 µM (inactive)	23.2 µM (inactive)	5.04 µM (inactive)
C[C@]12CC[C@@H]3c4ccc(OCCN5CCCC5)cc4CC[C@H]3[C@@H]1CCC2=O		41 µM (inactive)	27 µM (inactive)	29 µM (inactive)	22.5 µM (inactive)		10.3 µM (inactive)	18.2 µM (inactive)	6.35	20.8 µM (inactive)	37.9 µM (inactive)	19.9 µM (inactive)	23.9 µM (inactive)	13.3 µM (inactive)	25.6 µM (inactive)	25.5 µM (inactive)	8.41 µM (inactive)	25.9 µM (inactive)	41 µM (inactive)	62.7 µM (inactive)
NC(CCP(=O)(O)CCC1C=CC=CC1)C(=O)O (centres undefined)	> 100 µM (inactive)	> 100 µM (inactive)	> 100 µM (inactive)	> 100 µM (inactive)		> 100 µM (inactive)	> 100 µM (inactive)	> 100 µM (inactive)	> 100	> 100 µM (inactive)	> 100 µM (inactive)	> 100 µM (inactive)	> 100 µM (inactive)	> 100 µM (inactive)	> 100 µM (inactive)	> 100 µM (inactive)	> 100 µM (inactive)	> 100 µM (inactive)	> 100 µM (inactive)	> 100 µM (inactive)
COc1cc(-c2cc(=O)c3c(O)c(CC=C(C)C)c(O)cc3o2)ccc1O	16.2 µM (inactive)	16.7 µM (inactive)	> 50 µM (inactive)	> 50 µM (inactive)	25.1 µM (inactive)			7.29 µM (inactive)	15	33.5 µM (inactive)	16.8 µM (inactive)	19.5 µM (inactive)	14.9 µM (inactive)	14.6 µM (inactive)	26.7 µM (inactive)	24.4 µM (inactive)	> 50 µM (inactive)	> 50 µM (inactive)	23.4 µM (inactive)	19.1 µM (inactive)
O=C(Nc1ccccc1F)c1c(O)nc2sccn2c1=O	> 10 µM (inactive)	> 10 µM (inactive)			> 10 µM (inactive)	> 10 µM (inactive)	> 10 µM (inactive)	> 10 µM (inactive)	> 10	> 10 µM (inactive)	> 10 µM (inactive)	> 10 µM (inactive)	> 10 µM (inactive)	> 10 µM (inactive)	> 10 µM (inactive)	> 10 µM (inactive)	> 10 µM (inactive)	> 10 µM (inactive)	> 10 µM (inactive)	> 10 µM (inactive)
O=C1c2cccc3cc4ccccc4c(c23)C(=O)N1CCNCCNCCNCCN1C(=O)c2cccc3cc4ccccc4c(c23)C1=O	< 0.01 µM (active)	< 0.01 µM (active)	0.201 µM (active)	0.0111 µM (active)	< 0.01 µM (active)	< 0.0141 µM (active)	< 0.0134 µM (active)	0.129 µM (active)	< 0.01	0.0335 µM (active)	< 0.01 µM (active)	< 0.01 µM (active)	< 0.033 µM (active)	0.0243 µM (active)	< 0.01 µM (active)	< 0.01 µM (active)	< 0.01 µM (active)	< 0.01 µM (active)		
CCOC(=O)CSc1nc(N)c2c(-c3ccc(OC)c(OC)c3)c3c(nc2n1)CCCC3	> 100 µM (inactive)	> 100 µM (inactive)	> 100 µM (inactive)		> 100 µM (inactive)	14.4 µM (inactive)		95.3 µM (inactive)	> 100	> 100 µM (inactive)	> 100 µM (inactive)	> 100 µM (inactive)	> 100 µM (inactive)	> 100 µM (inactive)	24.3 µM (inactive)	49.2 µM (inactive)	> 100 µM (inactive)	> 100 µM (inactive)	> 100 µM (inactive)	> 100 µM (inactive)
